Where two headings read alike, the source gives them in different places.
Experiments:
[1] = target: T1, Recombinant STAT3 protein (STAT3 (G127-I722)) (Homo sapiens, UniProt P40763); experiment: STAT3 Fluorescence Polarization (FP) Assay; type: binding; details: STAT3 (G127-I722) 25 nM, probe 5-FAM-GpYLPQTV-NH2 2 nM, 45-minute incubation; read-out: STAT3 (FP assay IC50 class)
T1 construct: Recombinant STAT3 protein (STAT3 (G127-I722))
Procedure, shortened: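 In this competition FP format, STAT3 residues G127-I722 (25 nM) and 2 nM 5-FAM-GpYLPQTV-NH2 met test compounds for 45 min at room temperature. IC50 values result from fitting mP signal against log concentration by nonlinear regression.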

[2] = target: T2, Recombinant STAT6 protein (STAT6 (W123-T658)) (Homo sapiens, UniProt P42226); experiment: STAT6 Fluorescence Polarization (FP) Assay; type: binding; details: STAT6 (W123-T658) 250 nM, 45-minute incubation, read-out: STAT6 (FP assay IC50 class)
T2 construct: Recombinant STAT6 protein (STAT6 (W123-T658))
T2 sequence (P42226 123-658): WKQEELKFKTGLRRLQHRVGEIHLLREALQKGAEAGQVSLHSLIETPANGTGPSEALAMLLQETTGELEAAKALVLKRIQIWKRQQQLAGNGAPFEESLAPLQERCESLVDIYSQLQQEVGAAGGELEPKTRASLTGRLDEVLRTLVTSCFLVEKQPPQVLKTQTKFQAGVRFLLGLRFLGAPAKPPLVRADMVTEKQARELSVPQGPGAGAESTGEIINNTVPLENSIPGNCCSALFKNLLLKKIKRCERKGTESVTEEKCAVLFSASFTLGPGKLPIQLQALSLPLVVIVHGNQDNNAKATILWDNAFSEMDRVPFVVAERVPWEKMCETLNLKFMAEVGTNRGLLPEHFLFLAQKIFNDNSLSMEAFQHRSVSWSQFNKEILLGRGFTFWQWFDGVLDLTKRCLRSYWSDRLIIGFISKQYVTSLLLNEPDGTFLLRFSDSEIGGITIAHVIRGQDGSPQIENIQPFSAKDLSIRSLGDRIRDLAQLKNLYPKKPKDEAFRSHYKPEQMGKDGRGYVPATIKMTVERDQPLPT
Procedure, shortened: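 Displacement of a fluorescent phosphotyrosine peptide (2 nM) from 250 nM STAT6 (W123-T658) is measured by polarization after a 45-minute room-temperature incubation. Compounds are titrated serially at 1% DMSO, and IC50 values derive from regression of mP on log concentration.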

[3] = probe 5-FAM-ApYKPFQDLI-NH2 2 nM

T1 sequence (P40763 127-722): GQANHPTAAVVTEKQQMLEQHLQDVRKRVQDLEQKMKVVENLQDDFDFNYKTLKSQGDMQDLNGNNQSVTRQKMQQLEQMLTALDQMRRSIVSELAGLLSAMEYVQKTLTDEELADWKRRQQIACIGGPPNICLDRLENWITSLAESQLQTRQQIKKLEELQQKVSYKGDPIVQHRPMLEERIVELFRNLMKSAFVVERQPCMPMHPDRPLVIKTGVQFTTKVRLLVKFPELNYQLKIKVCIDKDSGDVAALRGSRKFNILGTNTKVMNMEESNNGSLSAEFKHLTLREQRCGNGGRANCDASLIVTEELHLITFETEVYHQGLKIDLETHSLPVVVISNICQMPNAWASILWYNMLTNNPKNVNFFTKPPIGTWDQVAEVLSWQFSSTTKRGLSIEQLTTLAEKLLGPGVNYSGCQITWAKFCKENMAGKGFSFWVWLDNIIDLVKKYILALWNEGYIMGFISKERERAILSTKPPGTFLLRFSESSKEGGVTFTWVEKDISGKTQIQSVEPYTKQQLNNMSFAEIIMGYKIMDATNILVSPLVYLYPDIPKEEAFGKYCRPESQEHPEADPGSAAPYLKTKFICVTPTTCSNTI

| SMILES | IC50 [1] [nM] | IC50 ([2]; probe 5-FAM-Ap[…]-NH2 2 nM) [µM] | IC50 [2, 3] [µM] |
| --- | --- | --- | --- |
| COc1ccncc1C1CN(C(=O)[C@@H]2CC[C@@H]3CCC[C@H](NC(=O)c4cc5cc([C@@H](F)P(=O)(O)O)ccc5s4)C(=O)N32)C1 (single isomer, unassigned) [Compound 756] | < 100 | 3 to 30 |  |
| CCOc1ccncc1C1CN(C(=O)[C@@H]2CC[C@@H]3CCC[C@H](NC(=O)c4cc5cc([C@@H](F)P(=O)(O)O)ccc5s4)C(=O)N32)C1 (single isomer, unassigned) [Compound 771] | < 100 | 3 to 30 |  |
| CCOc1ccncc1C1CN(C(=O)[C@@H]2CC[C@@H]3CCC[C@H](NC(=O)c4cc5cc([C@H](F)P(=O)(O)O)ccc5s4)C(=O)N32)C1 (single isomer, unassigned) [Compound 772] | < 100 | 3 to 30 |  |
| C[C@H]1C[C@H]2CC[C@@H](C(=O)N3C[C@@H](C#N)[C@H](c4ccccc4)C3)N2C(=O)[C@@H](NC(=O)c2cc3cc(C(F)(F)P(=O)(O)O)ccc3s2)C1 (single isomer, unassigned) [Compound 782] | 100 to 1000 | 0.3 to 3 |  |
| N#C[C@@H]1[C@@H](c2ccccc2)CN(C(=O)[C@@H]2CC[C@@H]3CCCC[C@H](NC(=O)c4ccc5ccc([C@@H](F)P(=O)(O)O)cc5c4)C(=O)N32)C12CC2 (single isomer, unassigned) [Compound 832] | 1000 to 10000 | ≤ 0.3 |  |
| N#C[C@@H]1[C@@H](c2cccnc2)CN(C(=O)[C@@H]2CC[C@@H]3CCC[C@H](NC(=O)c4cc5cc([C@H](F)P(=O)(O)O)ccc5s4)C(=O)N32)C12CC2 (single isomer, unassigned) [Compound 833] | 1000 to 10000 | ≤ 0.3 |  |
| N#C[C@@H]1[C@@H](c2ccccc2)CN(C(=O)[C@@H]2CC[C@@H]3CCCC[C@H](NC(=O)c4cc5cc([C@H](F)P(=O)(O)O)ccc5s4)C(=O)N32)C12CC2 (single isomer, unassigned) [Compound 835] | 1000 to 10000 | ≤ 0.3 |  |
| N#C[C@H]1[C@H](c2ccccc2)CN(C(=O)[C@@H]2CC[C@@H]3CCCC[C@H](NC(=O)c4cc5cc([C@@H](F)P(=O)(O)O)ccc5s4)C(=O)N32)C12CC2 (single isomer, unassigned) [Compound 836] | 1000 to 10000 | ≤ 0.3 |  |
| N#C[C@@H]1[C@@H](c2cccnc2)CN(C(=O)[C@@H]2CC[C@@H]3CCC[C@H](NC(=O)c4cc5cc([C@@H](F)P(=O)(O)O)ccc5s4)C(=O)N32)C12CC2 (single isomer, unassigned) [Compound 837] | 1000 to 10000 | ≤ 0.3 |  |
| N#C[C@@H]1[C@@H](c2cccnc2)CN(C(=O)[C@@H]2CC[C@@H]3CCCC[C@H](NC(=O)c4cc5cc([C@H](F)P(=O)(O)O)ccc5s4)C(=O)N32)C12CC2 (single isomer, unassigned) [Compound 839] | 1000 to 10000 | ≤ 0.3 |  |
| N#C[C@@H]1[C@@H](c2cccnc2)CN(C(=O)[C@@H]2CC[C@@H]3CCCC[C@H](NC(=O)c4cc5cc([C@H](F)P(=O)(O)O)ccc5s4)C(=O)N32)C12CC2 (single isomer, unassigned) [Compound 840] | 1000 to 10000 |  | ≤ 0.3 |
| N#C[C@@H]1[C@@H](c2cncc(Cl)c2)CN(C(=O)[C@@H]2CC[C@@H]3CCC[C@H](NC(=O)c4cc5cc([C@H](F)P(=O)(O)O)ccc5s4)C(=O)N32)C12CC2 (single isomer, unassigned) [Compound 841] | 1000 to 10000 | 0.3 to 3 |  |
| N#C[C@@H]1[C@@H](c2cncc(Cl)c2)CN(C(=O)[C@@H]2CC[C@@H]3CCC[C@H](NC(=O)c4cc5cc([C@H](F)P(=O)(O)O)ccc5s4)C(=O)N32)C12CC2 (single isomer, unassigned) [Compound 842] | 1000 to 10000 |  | 0.3 to 3 |
| COc1cncc([C@@H]2CN(C(=O)[C@@H]3CC[C@@H]4CCC[C@H](NC(=O)c5cc6cc([C@H](F)P(=O)(O)O)ccc6s5)C(=O)N43)C3(CC3)[C@H]2C#N)c1 (single isomer, unassigned) [Compound 843] | 1000 to 10000 | 0.3 to 3 |  |
| COc1cncc([C@H]2CN(C(=O)[C@@H]3CC[C@@H]4CCC[C@H](NC(=O)c5cc6cc([C@@H](F)P(=O)(O)O)ccc6s5)C(=O)N43)C3(CC3)[C@@H]2C#N)c1 (single isomer, unassigned) [Compound 844] | 1000 to 10000 | 0.3 to 3 |  |
| N#C[C@@H]1[C@@H](c2cncc(Cl)c2)CN(C(=O)[C@@H]2CC[C@@H]3CCCC[C@H](NC(=O)c4cc5cc([C@H](F)P(=O)(O)O)ccc5s4)C(=O)N32)C12CC2 (single isomer, unassigned) [Compound 845] | 1000 to 10000 | ≤ 0.3 |  |
| N#C[C@@H]1[C@@H](c2cncc(Cl)c2)CN(C(=O)[C@@H]2CC[C@@H]3CCCC[C@H](NC(=O)c4cc5cc(C(F)P(=O)(O)O)ccc5s4)C(=O)N32)C12CC2 (single isomer, unassigned) [Compound 846] | 1000 to 10000 | 0.3 to 3 |  |
| COc1cncc([C@@H]2CN(C(=O)[C@@H]3CC[C@@H]4CCC[C@H](NC(=O)c5cc6cc([C@H](F)P(=O)(O)O)ccc6s5)C(=O)N43)C3(CC3)[C@H]2C#N)c1 (single isomer, unassigned) [Compound 847] | 1000 to 10000 |  | 0.3 to 3 |
| COc1cncc([C@H]2CN(C(=O)[C@@H]3CC[C@@H]4CCCC[C@H](NC(=O)c5cc6cc([C@H](F)P(=O)(O)O)ccc6s5)C(=O)N43)C3(CC3)[C@@H]2C#N)c1 (single isomer, unassigned) [Compound 848] | 1000 to 10000 | 0.3 to 3 |  |
| O=C(N[C@H]1CCC[C@H]2CC[C@@H](C(=O)N3CC(c4cncnc4N4CCOCC4)C3)N2C1=O)c1cc2cc([C@H](F)P(=O)(O)O)ccc2s1 (single isomer, unassigned) [Compound 857] | < 100 | 3 to 30 |  |
| O=C(N[C@H]1CCC[C@H]2CC[C@@H](C(=O)N3CC(c4cncnc4N4CCOCC4)C3)N2C1=O)c1cc2cc([C@@H](F)P(=O)(O)O)ccc2s1 (single isomer, unassigned) [Compound 861] | < 100 | 3 to 30 |  |
| COC[C@@H]1CCN1c1ncncc1C1CN(C(=O)[C@@H]2CC[C@@H]3CCC[C@H](NC(=O)c4cc5cc([C@H](F)P(=O)(O)O)ccc5s4)C(=O)N32)C1 (single isomer, unassigned) [Compound 862] | < 100 | 3 to 30 |  |
| N#C[C@@H]1CN(C(=O)[C@@H]2CC[C@@H]3CCCC[C@H](NC(=O)c4cc5cc([C@H](F)P(=O)(O)O)ccc5s4)C(=O)N32)C[C@H]1c1cc[nH]c(=O)c1 (single isomer, unassigned) [Compound 872] | 100 to 1000 | ≤ 0.3 |  |
| N#C[C@H]1CN(C(=O)[C@@H]2CC[C@@H]3CCCC[C@H](NC(=O)c4cc5cc(C(F)(F)P(=O)(O)O)ccc5s4)C(=O)N32)C[C@@H]1c1cc[nH]c(=O)c1 (single isomer, unassigned) [Compound 875] | 100 to 1000 | ≤ 0.3 |  |
| Cc1cc(C2CN(C(=O)[C@@H]3CC[C@@H]4CCCC[C@H](NC(=O)c5cc6cc(C(F)(F)P(=O)(O)O)ccc6s5)C(=O)N43)CC2C#N)cc(=O)[nH]1 (single isomer, unassigned) [Compound 876] | 1000 to 10000 | 0.3 to 3 |  |
| N#C[C@H]1CN(C(=O)[C@@H]2CC[C@@H]3CCCC[C@H](NC(=O)c4cc5cc(CP(=O)(O)O)ccc5s4)C(=O)N32)C[C@@H]1c1cc[nH]c(=O)c1 (single isomer, unassigned) [Compound 878] | 1000 to 10000 | 0.3 to 3 |  |
